Reference: patent US20090029406A1, “Npy Y4 Agonist as Therapeutic Agent for Disease Accompanied by Intestinal Tract Dysfunction” (Banyu Pharmaceutical Co., Ltd., priority 2006, published 2009)

Experiments:
[1] = tested on: proximal colon isolated from a wild-type mouse; assay: Tension of proximal colon isolated from wild-type mouse (Example 5); conditions: 1 μM
Protocol: (§1) The ileum, proximal colon and distal colon were isolated from an NPY Y4 receptor knockout mouse and a wild-type mouse (32 to 37 weeks of age). The specimens were cut into a length of 1 cm, respectively, and were suspended in the longitudinal muscle direction under a resting tension of 0.3 g in 5 mL of Krebs-Henseleit solution oxygenated with 95% O2 and 5% CO2, while setting the temperature of a bath to 37° C. The tension was measured using an isometric transducer (TB-65 1, manufactured by Nihon Kohden), and outputs were recorded at 20 points per second using Power Lab (ADInstrument).
(§2) After equilibration for 1 hour, 1 μM mPP was applied and measurement was carried out for 20 minutes. The above-mentioned mPP was prepared such that it became a 1 mM solution in DMSO, and 5 μL of the resulting solution was applied to 5 mL of an organ bath. The action of mPP was represented by a ratio of an average tension for 20 minutes after the application to an average tension for 20 minutes before the application. The statistical calculation was performed using the Student's t-test or paired t-test.

[2] = tested on: distal colon isolated from a wild-type mouse; assay: Tension of distal colon isolated from wild-type mouse (Example 5); conditions: 1 μM
Protocol: as §1, §2

[3] = tested on: proximal colon isolated from a C57BL/6 mouse; assay: Tension of isolated proximal colon, organ bath (Example 2)
Protocol: (§3) The ileum, proximal colon and distal colon were isolated from a C57BL/6 mouse (8 to 20 weeks of age). The specimens were cut into a length of 1 cm, respectively, and were suspended in the longitudinal muscle direction under a resting tension of 0.3 g in 5 mL of Krebs-Henseleit solution (the composition is shown in Table 1) oxygenated with 95% O2 and 5% CO2, while setting the temperature of a bath to 37° C. The tension was measured using an isometric transducer (TB-651, manufactured by Nihon Kohden), and outputs were recorded at 20 points per second using Power Lab (manufactured by ADInstrument).
(§4) After equilibration for 1 hour, mPP at 0.01 μM, 0.1 μM and 1 μM was applied and measurement was carried out for 20 minutes. The above-mentioned mPP was prepared such that it became 0.01 mM, 0.1 mM and 1 mM solutions in DMSO, and 5 μL of each of the resulting solutions was applied to 5 mL of an organ bath. The action of mPP was represented by a ratio of an average tension for 20 minutes after the application to an average tension for 20 minutes before the application. The statistical calculation was performed using the paired t-test.

[4] = tested on: ileum isolated from an NPY Y4 receptor knockout mouse and a wild-type mouse; assay: Tension of ileum isolated from NPY Y4 receptor knockout and wild-type mouse (Example 5); conditions: 1 μM
Protocol: as §1, §2

[5] = tested on: male mice (C57BL/6J); assay: Amount of excreted feces after subcutaneous administration to mice (Example 1); type: in vivo, mouse
Excerpt: Also, it is known that the Y4 receptor is present in the lower gastrointestinal tract. Accordingly, by administering mouse PP (mPP) to a mouse, an effect on the movement of the lower gastrointestinal tract of the mouse was studied. That is, how the amount of excreted feces was changed by the administration of mPP was observed, and a change in the gastrointestinal movement was discussed by assuming that an increase in the amount of excreted feces reflects an increase in the lower gastrointestinal tract movement.
To male mice (C57BL/6J, 15 weeks of age), mPP (0.001, 0.01, 0.1 or 1 mg/kg) was subcutaneously administered, and to a vehicle group, only saline (5 mL/kg) was subcutaneously administered. The mice were subjected to fasting at the same time of the subcutaneous administration of saline or mPP. Feces were collected at 1, 2 and 4 hours after the administration, and the weight of the feces was measured. A significant difference between groups was analyzed using an analysis of variance and the Dunnett's test.

[6] = tested on: distal colon isolated from a C57BL/6 mouse; assay: Tension of isolated distal colon, organ bath (Example 2)
Protocol: as §3, §4

[7] = tested on: ileum isolated from a C57BL/6 mouse; assay: Tension of isolated ileum, organ bath (Example 2); conditions: 0.01, 0.1 and 1 μM
Protocol: as §3, §4

[8] = tested on: NPY Y4 receptor knockout mice; assay: Amount of excreted feces in NPY Y4 receptor knockout mice (Example 4); type: in vivo, mouse; conditions: 1 mg/kg subcutaneous, vehicle group 358±31 mg/2 h
Protocol: (§5) The following test was carried out using wild-type mice and NPY Y4 receptor knockout mice (male, 23 to 39 weeks of age, n=10 to 16). mPP (1 mg/kg) or saline (5 mL/kg) was subcutaneously administered to the mice. The mice were subjected to fasting at the same time of the subcutaneous administration. Feces were collected at 1 and 2 hours after the administration, and the weight of the feces was measured. The cumulative amount of feces for 2 hours was used for an analysis, and a significant difference between groups was analyzed using the Student's t-test.

[9] = tested on: wild-type mice; assay: Amount of excreted feces in wild-type mice (Example 4); type: in vivo, mouse; conditions: 1 mg/kg subcutaneous
Protocol: as §5

[10] = tested on: mouse models of constipation induced by clonidine; assay: Mouse models of constipation induced by clonidine, amount of excreted feces (Example 3); type: in vivo; conditions: clonidine 0.1 mg/kg i.p., mPP 1 mg/kg s.c. one hour later; 4 hours after clonidine (3 hours after mPP)
Protocol: To male mice (C57BL/6J, 18 weeks of age), clonidine (0.1 mg/kg) was intraperitoneally administered, and to a vehicle group, only saline was intraperitoneally administered. One hour after the administration of clonidine, saline (a control group) or mPP (1 mg/kg) was subcutaneously administered, and also to a vehicle group, only saline was subcutaneously administered. The mice were subjected to fasting at the same time of the intraperitoneal administration of saline or clonidine. Feces were collected at 1, 2, 3 and 4 hours after the administration, and the weight of the feces was measured. A significant difference between groups was analyzed using an analysis of variance and the Tukey's test.

[11] = 0.01, 0.1 and 1 μM, ratio of average tension 20 min after to 20 min before application

Q: “mouse PP (APLEPMYPGDYATPEQMAQYETQLRRYINTLTRPRY; mouse) [mPP]” was tested. Which “increase in the tension” value [1] did it give?
A: Its value is “an increase in the tension observed in the wild-type mouse”.

Q: What about the “increase in the tension” value [2] of the same substance?
A: The value was “an increase in the tension observed in the wild-type mouse”.

Q: And the amplitude of automatism [3]?
A: Its amplitude of automatism is “an increase in the amplitude of automatism was observed”.

Q: And the “increase in the tension, dose dependence” value ([3]; 0.01, 0.1 and 1 μM)?
A: Its value is “increased the tension in a dose dependent manner”.

Q: And the “maximum action on tension, of that before the application” value [3, 11]?
A: Its value is 131%.

Q: What about the “difference in the change in the tension between wild-type and NPY Y4 receptor knockout mouse” value [4] of the same substance?
A: Its value is “a difference was not observed between them”.

Q: What about the “cumulative amount of excreted feces for 4 hours after administration” value ([5]; 0.1 mg/kg subcutaneous, P<0.05 vs vehicle group (211±18 mg/4 h)) of the same substance?
A: The value was 325±22 mg/4 h.

Q: What about the “action of increasing defecation (amount of excreted feces)” value ([5]; 0.001, 0.01, 0.1 or 1 mg/kg subcutaneous, feces collected at 1, 2 and 4 hours) of the same substance?
A: Its value is “exhibited an action of increasing defecation in a dose dependent manner”.

Q: And the “cumulative amount of excreted feces for 4 hours after administration” value ([5]; 1 mg/kg subcutaneous, P<0.01 vs vehicle group (211±18 mg/4 h))?
A: The value was 408±36 mg/4 h.

Q: What about the “dose at which cumulative amount of excreted feces for 4 hours was significant compared with the vehicle group” value ([5]; subcutaneous) of the same substance?
A: Its value is at least 0.1 mg/kg.

Q: And the amplitude of automatism [6]?
A: The amplitude of automatism was “an increase in the amplitude of automatism was observed”.

Q: What about the “increase in the tension, dose dependence” value ([6]; 0.01, 0.1 and 1 μM) of the same substance?
A: The value was “increased the tension in a dose dependent manner”.

Q: And the “maximum action on tension, of that before the application” value [6, 11]?
A: The value was 152%.

Q: And the “increase in the tension” value [7]?
A: Its value is “a significant increase in the tension was not observed”.

Q: And the “cumulative amount of feces for 2 hours” value [8]?
A: The value was 403±43 mg/2 h.

Q: And the “action of increasing defecation” value [9]?
A: Its value is “exhibited an action of increasing defecation”.

Q: And the “cumulative amount of feces for 2 hours” value ([9]; P<0.01 vs vehicle group (322±41 mg/2 h))?
A: Its value is 668±64 mg/2 h.

Q: What about the “decrease in the amount of excreted feces compared with the vehicle group” value [10] of the same substance?
A: The value was “a significant decrease in the amount of excreted feces was not observed”.
